# Reference: patent US20180208605A1, “Substituted Aza Compounds as IRAK-4 Inhibitors” (AURIGENE DISCOVERY TECHNOLOGIES LIMITED, priority 2015, published 2018)
# Counter-ions that a name gives are not always drawn. Like-named read-outs stand apart in the source and are kept apart here.
# Target: T1, recombinant IRAK-4 kinase (Homo sapiens, UniProt Q9NWZ3)
# T1 construct: purchased Millipore, USA
# T1 sequence (Q9NWZ3 1-460): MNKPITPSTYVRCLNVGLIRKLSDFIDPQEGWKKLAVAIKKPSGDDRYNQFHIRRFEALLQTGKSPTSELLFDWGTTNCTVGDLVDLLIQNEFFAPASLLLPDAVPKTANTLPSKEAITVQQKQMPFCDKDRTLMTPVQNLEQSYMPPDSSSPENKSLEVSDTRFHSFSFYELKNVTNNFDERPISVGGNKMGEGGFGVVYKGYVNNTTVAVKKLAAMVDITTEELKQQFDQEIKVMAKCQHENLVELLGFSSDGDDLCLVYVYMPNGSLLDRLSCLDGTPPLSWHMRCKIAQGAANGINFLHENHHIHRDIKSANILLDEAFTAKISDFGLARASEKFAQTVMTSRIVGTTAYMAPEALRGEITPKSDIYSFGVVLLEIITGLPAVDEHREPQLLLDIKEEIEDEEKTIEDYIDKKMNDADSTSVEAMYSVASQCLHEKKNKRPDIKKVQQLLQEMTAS
# Assay: IRAK-4 Biochemical Assay (TR-FRET, percent inhibition)
# Procedure: Compounds were tested for their potential to inhibit IRAK-4 enzyme in a TR-FRET assay using recombinant IRAK-4 kinase from Millipore, USA. The assay buffer was 50 mM Tris-HCl pH 7.5, 20 mM MgCl2, 1 mM EGTA, 2 mM DTT, 3 mM MnCl2 and 0.01% Tween 20.5 ng of IRAK-4 kinase was used for the assay. After pre-incubation of enzyme with test compound for 30 minutes at room temperature, a substrate mixture containing 100 nM Biotin Histone H3 (Millipore, USA) and 20 μM ATP (Sigma, USA) was added and the reaction was incubated for 30 min. Post incubation, the reaction was stopped by the addition of stop mix containing 40 mM EDTA, 1 nM of Europium-Anti-Phospho-Histone H3 (Ser10) antibody (Perkin Elmer, USA) and 20 nM SureLight Allophycocyanin-Streptavidin (Perkin Elmer, USA). The fluorescence emission at 615 nm and 665 nm were measured at an excitation of 340 nm and the percent inhibition was estimated from the ratio of the fluorescence intensities [(F665/F615)×10000].
# [1] = read-out: % inhibition of IRAK-4 @0.1 μM, compound at 0.1 μM, TR-FRET, 20 μM ATP, 100 nM Biotin Histone H3
# [2] = read-out: % inhibition of IRAK-4 @ 1 μM, compound at 1 μM, TR-FRET, 20 μM ATP, 100 nM Biotin Histone H3
SMILES,inhibition at 0.1 µM [1],inhibition at 1 µM [2],also measured
"O=C(Nc1cc2sc(N3CCOCC3)nc2nc1N1CCCCC1)c1cccc(N2CC(C(=O)O)NC2=O)n1 (stereo not shown) [Example 49, 1-(6-((2-morpholino-5-(piperidin-1-yl)thiazolo[4,5-b]pyridin-6-yl)carbamoyl)pyridin-2-yl)-2-oxoimidazolidine-4-carboxylic acid]",79%,96%,–
"O=C(Nc1cc2sc(N3CCOCC3)nc2nc1N1CCCCC1)c1ccnc(N2CC[C@@H](O)C2)n1 [Example 59, (R)-2-(3-hydroxypyrrolidin-1-yl)-N-(2-morpholino-5-(piperidin-1-yl)thiazolo[4,5-b]pyridin-6-yl)pyrimidine-4-carboxamide]",91%,99%,–
"O=C(Nc1cc2sc(N3CCOCC3)nc2nc1N1CCC[C@@H](O)C1)c1cccc(N2CCCCC2)n1 [Example 40, (R)-N-(5-(3-hydroxypiperidin-1-yl)-2-morpholinothiazolo[4,5-b]pyridin-6-yl)-6-(piperidin-1-yl)picolinamide]",96%,99%,–
"O=C(Nc1cc2sc(N3CCOCC3)nc2nc1N1CCCCC1)c1cccc(N2CCC(C(=O)O)CC2)n1 [Example 80, 1-(6-((2-morpholino-5-(piperidin-1-yl)thiazolo[4,5-b]pyridin-6-yl)carbamoyl)pyridin-2-yl)piperidine-4-carboxylic acid]",–,–,"% inhibition of IRAK-4 @0.1 μM (compound at 0.1 μM, TR-FRET, 20 μM ATP, 100 nM Biotin Histone H3): 96%; % inhibition of IRAK-4 @ 1 μM (compound at 1 μM, TR-FRET, 20 μM ATP, 100 nM Biotin Histone H3): 99%"
"O=C(Nc1cc2sc(N3CCOCC3)nc2nc1N1CCCCC1)c1cccc(N2CC[C@H](O)C2)n1 [Example 42, (S)-6-(3-hydroxypyrrolidin-1-yl)-N-(2-morpholino-5-(piperidin-1-yl)thiazolo[4,5-b]pyridin-6-yl)picolinamide hydrochloride]",94%,98%,–
"O=C(Nc1cc2sc(N3CCOCC3)nc2nc1N1CCCCC1)c1cccc(N2CCC(C(=O)O)CC2)n1 [Example 71, sodium 1-(6-((2-morpholino-5-(piperidin-1-yl)thiazolo[4,5-b]pyridin-6-yl)carbamoyl)pyridin-2-yl)piperidine-4-carboxylate]",94%,96%,–
"CCOC(=O)O[C@H]1CCN(c2cccc(C(=O)Nc3cc4sc(N5CCOCC5)nc4nc3N3CCCCC3)n2)C1 [Example 58, (S)-ethyl (1-(6-((2-morpholino-5-(piperidin-1-yl)thiazolo[4,5-b]pyridin-6-yl)carbamoyl)pyridin-2-yl)pyrrolidin-3-yl)carbonate]",71%,96%,–
"COc1ccc(-c2nc(C(=O)Nc3cc4sc(N5CCOCC5)nc4nc3N3CCCCC3)co2)nc1 [Example 74, 2-(5-methoxypyridin-2-yl)-N-(2-morpholino-5-(piperidin-1-yl)thiazolo[4,5-b]pyridin-6-yl)oxazole-4-carboxamide]",89%,95%,–
"CCOP(=O)(OCC)O[C@H]1CCN(c2cccc(C(=O)Nc3cc4sc(N5CCOCC5)nc4nc3N3CCCCC3)n2)C1 [Example 47, (S)-diethyl (1-(6-((2-morpholino-5-(piperidin-1-yl)thiazolo[4,5-b]pyridin-6-yl)carbamoyl)pyridin-2-yl)pyrrolidin-3-yl)phosphate]",–,–,inhibition at 0.1 µM (read-out: % inhibition of IRAK-4 @0.1 μM): 18%; inhibition at 1 µM (read-out: % inhibition of IRAK-4 @ 1 μM): 58%
"O=C(Nc1cc2sc(N3CCOCC3)nc2nc1N1CCCCC1)c1cccc(N2CCC(CO)CC2)n1 [Example 32, 6-(4-(hydroxymethyl)piperidin-1-yl)-N-(2-morpholino-5-(piperidin-1-yl)thiazolo[4,5-b]pyridin-6-yl)picolinamide]",93%,95%,–
"Cc1cc(-c2ncc(C(=O)Nc3cc4sc(N5CCOCC5)nc4nc3N3CCC(O)(CO)CC3)o2)ccn1 [Example 4, N-(5-(4-hydroxy-4-(hydroxymethyl)piperidin-1-yl)-2-morpholinothiazolo[4,5-b]pyridin-6-yl)-2-(2-methylpyridin-4-yl)oxazole-5-carboxamide hydrochloride]",99%,99%,–
"O=C(Nc1cc2oc(N3CCOCC3)nc2nc1N1CC[C@@H](O)C1)c1cnn2cccnc12 [Example 25, (R)—N-(5-(3-hydroxypyrrolidin-1-yl)-2-morpholinooxazolo[4,5-b]pyridin-6-yl)pyrazolo[1,5-a]pyrimidine-3-carboxamide]",55%,96%,–
"NCc1cn(-c2cccc(C(=O)Nc3cc4sc(N5CCOCC5)nc4nc3N3CCCCC3)n2)cn1 [Example 70, 6-(4-(aminomethyl)-1H-imidazol-1-yl)-N-(2-morpholino-5-(piperidin-1-yl)thiazolo[4,5-b]pyridin-6-yl)picolinamide 2,2,2-trifluoroacetate]",98%,99%,–
"Cc1cc(-c2ccc(C(=O)Nc3cc4oc(N5CCOCC5)nc4nc3N3CC[C@@H](O)C3)o2)ccn1 [Example 91, (R)-N-(5-(3-hydroxypyrrolidin-1-yl)-2-morpholinooxazolo[4,5-b]pyridin-6-yl)-5-(2-methylpyridin-4-yl)furan-2-carboxamide hydrochloride]",45%,92%,–
"O=C(Nc1cc2sc(N3CCOCC3)nc2nc1N1CCCCC1)c1ccnc(N2CC[C@H](O)C2)n1 [Example 60, (S)-2-(3-hydroxypyrrolidin-1-yl)-N-(2-morpholino-5-(piperidin-1-yl)thiazolo[4,5-b]pyridin-6-yl)pyrimidine-4-carboxamide]",88%,94%,–
"O=C(Nc1cc2oc(N3CCOCC3)nc2nc1N1CCCCC1)c1cnn2cccnc12 [Example 24, N-(2-morpholino-5-(piperidin-1-yl)oxazolo[4,5-b]pyridin-6-yl)pyrazolo[1,5-a]pyrimidine-3-carboxamide]",97%,97%,–
"Nc1ccc(-c2cccc(C(=O)Nc3cc4oc(N5CCOCC5)nc4nc3N3CCOCC3)n2)cn1 [Example 92, 6′-amino-N-(2,5-dimorpholinooxazolo[4,5-b]pyridin-6-yl)-[2,3′-bipyridine]-6-carboxamide hydrochloride]",78%,96%,–
"O=C(Nc1cc2sc(N3CCOCC3)nc2nc1N1CCCCC1)c1cccc(N2CCC[C@H](O)C2)n1 [Example 29, (S)-6-(3-hydroxypiperidin-1-yl)-N-(2-morpholino-5-(piperidin-1-yl)thiazolo[4,5-b]pyridin-6-yl)picolinamide]",98%,99%,–
"Cc1cc(-c2cccc(C(=O)Nc3cc4sc(N5CCOCC5)nc4nc3N3CCC[C@@H](O)C3)n2)ccn1 [Example 41, (R)-N-(5-(3-hydroxypiperidin-1-yl)-2-morpholinothiazolo[4,5-b]pyridin-6-yl)-2′-methyl-[2,4′-bipyridine]-6-carboxamide]",92%,98%,–
"Cc1ccc(-c2nc3nc(N4CCOCC4)oc3cc2NC(=O)c2coc(-c3ccnc(C)c3)n2)nc1 [Example 14, N-(5-(5-methylpyridin-2-yl)-2-morpholinooxazolo[4,5-b]pyridin-6-yl)-2-(2-methylpyridin-4-yl)oxazole-4-carboxamide]",99%,100%,–
"Cc1cc(-c2c[nH]c(C(=O)Nc3cc4sc(N5CCOCC5)nc4nc3N3CC[C@@H](O)C3)c2)ccn1 [Example 73, (R)-N-(5-(3-hydroxypyrrolidin-1-yl)-2-morpholinothiazolo[4,5-b]pyridin-6-yl)-4-(2-methylpyridin-4-yl)-1H-pyrrole-2-carboxamide]",69%,97%,–
"Cn1cc(-c2nc(C(=O)Nc3cc4sc(N5CCOCC5)nc4nc3N3CCCCC3)co2)ccc1=O [Example 3, 2-(1-methyl-6-oxo-1,6-dihydropyridin-3-yl)-N-(2-morpholino-5-(piperidin-1-yl)thiazolo[4,5-b]pyridin-6-yl)oxazole-4-carboxamide]",97%,98%,–
"NCC(=O)O[C@H]1CCN(c2cncc(C(=O)Nc3cc4sc(N5CCOCC5)nc4nc3N3CCCCC3)n2)C1 [Example 65, (S)-1-(6-((2-morpholino-5-(piperidin-1-yl)thiazolo[4,5-b]pyridin-6-yl)carbamoyl)pyrazin-2-yl)pyrrolidin-3-yl glycinate]",92%,97%,–
